Results published in ChEMBL document CHEMBL1201862, “PubChem BioAssay data set” (2004).
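Protocol summary: plate cells (96-well), add compound at 5 concentrations, incubate 48 h, interpolate endpoints linearly. GI50: concentration for 50% inhibition of growth.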 Calls of active or inactive are those of the source. No stated cut-off is given here; in the data, active = GI50 up to about 1.1 µM and inactive = higher. Where a SMILES comes first, the peptide text is derived from it. [ ]: non-standard residue; d: D form. The star is where a group is joined. mTyr = N[CH](Cc1cccc(O)c1)C(=O)O; Cbz = O=C(OCc1ccccc1)*; OBn = c1ccc(CO*)cc1

Legend:
Test in all cases: NCI tumour cell line growth inhibition, 48 h
786-0 = test system: 786-0
A498 = test system: A498
A549 = test system: A549
ACHN = test system: ACHN
BT-549 = test system: BT-549
COLO 205 = test system: COLO 205
EKVX = test system: EKVX
HCC 2998 = test system: HCC 2998
HCT-116 = test system: HCT-116
HCT-15 = test system: HCT-15
HL-60 = test system: HL-60
HOP-62 = test system: HOP-62
HOP-92 = test system: HOP-92
HT-29 = test system: HT-29
Hs-578T = test system: Hs-578T
IGROV-1 = test system: IGROV-1
K562 = test system: K562
KM12 = test system: KM12
M14 = test system: M14
MCF7 = test system: MCF7
MDA-MB-231 = test system: MDA-MB-231
MDA-N = test system: MDA-N
MOLT-4 = test system: MOLT-4
Malme-3M = test system: Malme-3M
NCI-H226 = test system: NCI-H226
NCI-H23 = test system: NCI-H23
NCI-H460 = test system: NCI-H460
OVCAR-5 = test system: OVCAR-5
OVCAR-8 = test system: OVCAR-8
PC-3 = test system: PC-3
RPMI-8226 = test system: RPMI-8226
RXF 393 = test system: RXF 393
SK-MEL-28 = test system: SK-MEL-28
SK-MEL-2 = test system: SK-MEL-2
SK-MEL-5 = test system: SK-MEL-5
SN12C = test system: SN12C
SNB-19 = test system: SNB-19
SNB-75 = test system: SNB-75
SR = test system: SR
SW-620 = test system: SW-620
T47D = test system: T47D
TK-10 = test system: TK-10
U-251 = test system: U-251
UACC-257 = test system: UACC-257
UACC-62 = test system: UACC-62
UO-31 = test system: UO-31
CAKI-1 = test system: CAKI-1
CCRF-CEM = test system: CCRF-CEM
DU-145 = test system: DU-145
LOX IMVI = test system: LOX IMVI
MDA-MB-435 = test system: MDA-MB-435
NCI-H522 = test system: NCI-H522
OVCAR-3 = test system: OVCAR-3
OVCAR-4 = test system: OVCAR-4
SF-268 = test system: SF-268
SF-295 = test system: SF-295
SF-539 = test system: SF-539
SK-OV-3 = test system: SK-OV-3
NCI/ADR-RES = test system: NCI/ADR-RES

With COC(=O)C(Cc1cccc(O)c1)NC(=O)C(CC(=O)OCc1ccccc1)NC(=O)OCc1ccccc1 (stereo unspecified) (Cbz-Asp(OBn)-[mTyr]-OMe; configuration not given here) the GI50 (786-0) was > 100 µM (inactive), the GI50 (A498) was > 100 µM (inactive) and the GI50 (A549) was > 100 µM (inactive). For the same compound, the GI50 (ACHN) was 63.5 µM (inactive), the GI50 (BT-549) was > 100 µM (inactive) and the GI50 (COLO 205) was > 100 µM (inactive). For the same compound, the GI50 (EKVX) was > 100 µM (inactive), the GI50 (HCC 2998) was > 100 µM (inactive) and the GI50 (HCT-116) was > 100 µM (inactive). The GI50 (HCT-15) was greater than 100 µM, the GI50 (HL-60) was 35.4 µM (inactive) and the GI50 (HOP-62) was > 100 µM (inactive). For the same compound, the GI50 (HOP-92) was 29.1 µM (inactive), the GI50 (HT-29) was 88.5 µM (inactive) and the GI50 (Hs-578T) was > 100 µM (inactive). The GI50 (IGROV-1) was 30.6 µM (inactive), the GI50 (K562) was > 100 µM (inactive) and the GI50 (KM12) was > 100 µM (inactive). For the same compound, the GI50 (M14) was > 100 µM (inactive), the GI50 (MCF7) was > 100 µM (inactive) and the GI50 (MDA-MB-231) was > 100 µM (inactive). For the same compound, the GI50 (MDA-N) was > 100 µM (inactive), the GI50 (MOLT-4) was 32.1 µM (inactive) and the GI50 (Malme-3M) was > 100 µM (inactive). For the same compound, the GI50 (NCI-H226) was > 100 µM (inactive), the GI50 (NCI-H23) was > 100 µM (inactive) and the GI50 (NCI-H460) was 15.4 µM (inactive). The GI50 (OVCAR-5) was > 100 µM (inactive), the GI50 (OVCAR-8) was > 100 µM (inactive) and the GI50 (PC-3) was > 100 µM (inactive). The GI50 (RPMI-8226) was 70.5 µM (inactive), the GI50 (RXF 393) was > 100 µM (inactive) and the GI50 (SK-MEL-28) was > 100 µM (inactive). For the same compound, the GI50 (SK-MEL-2) was > 100 µM (inactive), the GI50 (SK-MEL-5) was > 100 µM (inactive) and the GI50 (SN12C) was > 100 µM (inactive). The GI50 (SNB-19) was 65.8 µM (inactive), the GI50 (SNB-75) was > 100 µM (inactive) and the GI50 (SR) was 46.1 µM (inactive). The GI50 (SW-620) was > 100 µM (inactive), the GI50 (T47D) was 15.9 µM (inactive) and the GI50 (TK-10) was > 100 µM (inactive). For the same compound, the GI50 (U-251) was > 100 µM (inactive), the GI50 (UACC-257) was > 100 µM (inactive) and the GI50 (UACC-62) was 65.5 µM (inactive). For the same compound, the GI50 (UO-31) was 65.3 µM (inactive).
With Cc1ccc(C(=O)/C(C#N)=C/Nc2c(C)n(C)n(-c3ccccc3)c2=O)cc1 the GI50 (786-0) was > 100 µM (inactive), the GI50 (A498) was > 100 µM (inactive) and the GI50 (A549) was > 100 µM (inactive). The GI50 (ACHN) was > 100 µM (inactive), the GI50 (BT-549) was > 100 µM (inactive) and the GI50 (CAKI-1) was > 100 µM (inactive). The GI50 (CCRF-CEM) was > 100 µM (inactive), the GI50 (COLO 205) was > 100 µM (inactive) and the GI50 (DU-145) was > 100 µM (inactive). For the same compound, the GI50 (EKVX) was > 100 µM (inactive), the GI50 (HCC 2998) was > 100 µM (inactive) and the GI50 (HCT-116) was > 100 µM (inactive). For the same compound, the GI50 (HCT-15) was greater than 100 µM, the GI50 (HL-60) was > 100 µM (inactive) and the GI50 (HOP-62) was > 100 µM (inactive). For the same compound, the GI50 (HOP-92) was 46.2 µM (inactive), the GI50 (HT-29) was > 100 µM (inactive) and the GI50 (Hs-578T) was > 100 µM (inactive). For the same compound, the GI50 (IGROV-1) was > 100 µM (inactive), the GI50 (K562) was > 100 µM (inactive) and the GI50 (KM12) was > 100 µM (inactive). For the same compound, the GI50 (LOX IMVI) was > 100 µM (inactive), the GI50 (M14) was > 100 µM (inactive) and the GI50 (MCF7) was > 100 µM (inactive). The GI50 (MDA-MB-231) was > 100 µM (inactive), the GI50 (MDA-MB-435) was > 100 µM (inactive) and the GI50 (MDA-N) was > 100 µM (inactive). The GI50 (MOLT-4) was > 100 µM (inactive), the GI50 (Malme-3M) was > 100 µM (inactive) and the GI50 (NCI-H226) was > 100 µM (inactive). For the same compound, the GI50 (NCI-H23) was > 100 µM (inactive), the GI50 (NCI-H460) was > 100 µM (inactive) and the GI50 (NCI-H522) was > 100 µM (inactive). For the same compound, the GI50 (OVCAR-3) was > 100 µM (inactive), the GI50 (OVCAR-4) was > 100 µM (inactive) and the GI50 (OVCAR-5) was > 100 µM (inactive). For the same compound, the GI50 (PC-3) was > 100 µM (inactive), the GI50 (RPMI-8226) was > 100 µM (inactive) and the GI50 (RXF 393) was > 100 µM (inactive). For the same compound, the GI50 (SF-268) was > 100 µM (inactive), the GI50 (SF-295) was > 100 µM (inactive) and the GI50 (SF-539) was > 100 µM (inactive). For the same compound, the GI50 (SK-MEL-28) was > 100 µM (inactive), the GI50 (SK-MEL-2) was > 100 µM (inactive) and the GI50 (SK-MEL-5) was > 100 µM (inactive). The GI50 (SK-OV-3) was > 100 µM (inactive), the GI50 (SN12C) was > 100 µM (inactive) and the GI50 (SNB-19) was > 100 µM (inactive). For the same compound, the GI50 (SR) was > 100 µM (inactive), the GI50 (SW-620) was > 100 µM (inactive) and the GI50 (T47D) was > 100 µM (inactive). The GI50 (TK-10) was > 100 µM (inactive), the GI50 (U-251) was > 100 µM (inactive) and the GI50 (UACC-257) was > 100 µM (inactive). For the same compound, the GI50 (UACC-62) was > 100 µM (inactive) and the GI50 (UO-31) was > 100 µM (inactive).
O=C(CNc1ccc(Cl)cc1Cl)NC1C=Cc2ccc(S(=O)(=O)Nc3ccc(Cl)cc3Cl)cc2C1=O (stereo unspecified) was tested, and the GI50 (786-0) was > 100 µM (inactive), the GI50 (A549) was > 100 µM (inactive) and the GI50 (ACHN) was > 100 µM (inactive). The GI50 (BT-549) was > 100 µM (inactive), the GI50 (CAKI-1) was > 100 µM (inactive) and the GI50 (CCRF-CEM) was 9.18 µM (inactive). For the same compound, the GI50 (COLO 205) was > 100 µM (inactive), the GI50 (DU-145) was > 100 µM (inactive) and the GI50 (EKVX) was > 100 µM (inactive). The GI50 (HCC 2998) was > 100 µM (inactive), the GI50 (HCT-116) was > 100 µM (inactive) and the GI50 (HCT-15) was greater than 100 µM. The GI50 (HL-60) was > 100 µM (inactive), the GI50 (HOP-62) was > 100 µM (inactive) and the GI50 (HOP-92) was > 100 µM (inactive). The GI50 (HT-29) was > 100 µM (inactive), the GI50 (Hs-578T) was > 100 µM (inactive) and the GI50 (IGROV-1) was > 100 µM (inactive). The GI50 (K562) was > 100 µM (inactive), the GI50 (KM12) was > 100 µM (inactive) and the GI50 (LOX IMVI) was > 100 µM (inactive). The GI50 (M14) was > 100 µM (inactive), the GI50 (MCF7) was > 100 µM (inactive) and the GI50 (MDA-MB-231) was > 100 µM (inactive). The GI50 (MDA-MB-435) was > 100 µM (inactive), the GI50 (MDA-N) was > 100 µM (inactive) and the GI50 (MOLT-4) was > 100 µM (inactive). For the same compound, the GI50 (Malme-3M) was > 100 µM (inactive), the GI50 (NCI-H226) was > 100 µM (inactive) and the GI50 (NCI-H23) was > 100 µM (inactive). For the same compound, the GI50 (NCI-H460) was > 100 µM (inactive), the GI50 (NCI-H522) was > 100 µM (inactive) and the GI50 (NCI/ADR-RES) was > 100 µM (inactive). The GI50 (OVCAR-3) was > 100 µM (inactive), the GI50 (OVCAR-5) was > 100 µM (inactive) and the GI50 (OVCAR-8) was > 100 µM (inactive). For the same compound, the GI50 (PC-3) was > 100 µM (inactive), the GI50 (RPMI-8226) was 11 µM (inactive) and the GI50 (SF-268) was > 100 µM (inactive). For the same compound, the GI50 (SF-295) was > 100 µM (inactive), the GI50 (SF-539) was > 100 µM (inactive) and the GI50 (SK-MEL-28) was > 100 µM (inactive). The GI50 (SK-MEL-2) was > 100 µM (inactive), the GI50 (SK-OV-3) was > 100 µM (inactive) and the GI50 (SN12C) was > 100 µM (inactive). For the same compound, the GI50 (SNB-19) was > 100 µM (inactive), the GI50 (SNB-75) was > 100 µM (inactive) and the GI50 (SR) was > 100 µM (inactive). The GI50 (SW-620) was > 100 µM (inactive), the GI50 (TK-10) was > 100 µM (inactive) and the GI50 (U-251) was > 100 µM (inactive). The GI50 (UACC-257) was > 100 µM (inactive), the GI50 (UACC-62) was > 100 µM (inactive) and the GI50 (UO-31) was 54.2 µM (inactive).
